# Calls of active or inactive are those of the source.
# Legend:
# Coagulation factor XII = target: T1, Coagulation factor XII (Homo sapiens, UniProt P00748); type: functional;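 also: activated factor XIIa alpha cleaving a fluorogenic AMC peptide substrate; inhibitor potency from loss of enzyme activity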
# T1 sequence (P00748 whole entry): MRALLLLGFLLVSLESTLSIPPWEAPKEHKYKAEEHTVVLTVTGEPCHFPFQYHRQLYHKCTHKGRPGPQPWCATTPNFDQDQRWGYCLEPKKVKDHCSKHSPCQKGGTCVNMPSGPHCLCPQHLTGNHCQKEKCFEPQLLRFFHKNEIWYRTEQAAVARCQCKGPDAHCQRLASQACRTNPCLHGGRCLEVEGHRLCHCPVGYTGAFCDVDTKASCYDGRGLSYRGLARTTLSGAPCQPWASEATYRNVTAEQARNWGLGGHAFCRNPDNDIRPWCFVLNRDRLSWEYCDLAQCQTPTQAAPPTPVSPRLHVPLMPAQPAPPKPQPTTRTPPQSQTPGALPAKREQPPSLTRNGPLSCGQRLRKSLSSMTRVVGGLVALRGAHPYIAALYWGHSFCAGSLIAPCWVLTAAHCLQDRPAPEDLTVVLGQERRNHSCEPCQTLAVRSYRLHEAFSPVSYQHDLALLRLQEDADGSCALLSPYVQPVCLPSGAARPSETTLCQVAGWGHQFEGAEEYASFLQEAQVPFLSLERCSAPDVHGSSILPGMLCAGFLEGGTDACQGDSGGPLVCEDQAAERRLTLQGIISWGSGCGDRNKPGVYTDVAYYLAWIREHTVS
# [1] = blockers of HIV-1 ZM109 envelope-driven cell-cell fusion – HeLa effector, CEM target cells, luciferase, cherry-pick, dose response (AID 652058); type: functional, cell-based;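 also: luciferase signal from HIV-1 Env mediated cell-cell fusion of effector and target cells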
# [2] = viability loss in CEM21 cells – cell-based, CellTiter-Glo luminescence, cherry-picked, cytotoxicity control for viral fusion inhibitor project, dose response (AID 652042); type: functional;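 also: potency for signal decrease meaning cytotoxicity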
# [3] = HIV-1 AD8 envelope cell-cell fusion blockers – cherry-pick, dose response (AID 652062); type: functional, cell-based;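 also: luciferase signal from cell-cell fusion driven by HIV-1 clade B AD8 Env; potency is for inhibitors of fusion seen as a drop in luminescence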
# [4] = blockers of HIV-1 envelope-mediated cell-cell fusion – cherry-pick, dose response (AID 652057); type: functional, cell-based
# [5] = off-target signal loss in HeLa-CEM21 co-culture – HeLa F-luc CTL cells, cherry-picked, counter-screen for HIV-1 Env fusion inhibitor project, dose response (AID 652040); type: functional, cell-based;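 also: potency for signal decrease marking cytotoxic or nonspecific inhibition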
# [6] = NIH3T3 cell viability loss – ATP luminescence, mouse fibroblasts, counter-screen, dose response (AID 2010); type: functional, cell-based;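 also: cells exposed to compound for about 90 hours before reading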
# [7] = NIH-3T3 fibroblast cytotoxicity, dose response, cytotoxicity control, cell-based, fluorescence, Alamar Blue, secondary assay (AID 2327); type: functional;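 also: NIH-3T3 mouse fibroblasts cultured with fluconazole at 8 µg/mL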
# cells [8] = assay: cells
# [9] = fluconazole-exposed Candida albicans growth modulators – fluorescence, retest, confirmation (AID 2467); type: functional, cell-based
# [10] = Trypanosoma cruzi growth suppression in host cells – NIH3T3 host cells, beta-gal luminescence, confirmation (AID 2044); type: functional, cell-based;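 also: intracellular parasites grown in NIH/3T3 mouse fibroblasts as host cells; luminescent beta-galactosidase reporter signal from transgenic T. cruzi replicating inside host cells; inhibitors lower the luminescence signal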
# INS1 = assay: INS-1E survival protection against cytokine death – cell-based, luminescence, retest, dose response (AID 449756); type: functional; settings: Rattus norvegicus;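 also: cell death triggered by IL-1 beta plus TNF-alpha plus IFN-gamma mixture; protective hits raise ATP signal compared with cytokine alone wells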
# [11] = A cytotoxicity screen of small molecule inhibitors of the PhoP region in Salmonella typhi identified in the primary screen. [Related pubchem assays: 1850, 1864, 1985 ]; type: functional
# Aminopeptidase N = target: T2, Aminopeptidase N (Plasmodium falciparum FcB1/Columbia, UniProt O96935); assay: malaria alanyl aminopeptidase activity blockers – biochemical, fluorogenic H-Leu-NHMec substrate, 1536-well (AID 1445); set-up: species or system Plasmodium falciparum 3D7, 3D7
# T2 sequence (O96935 whole entry): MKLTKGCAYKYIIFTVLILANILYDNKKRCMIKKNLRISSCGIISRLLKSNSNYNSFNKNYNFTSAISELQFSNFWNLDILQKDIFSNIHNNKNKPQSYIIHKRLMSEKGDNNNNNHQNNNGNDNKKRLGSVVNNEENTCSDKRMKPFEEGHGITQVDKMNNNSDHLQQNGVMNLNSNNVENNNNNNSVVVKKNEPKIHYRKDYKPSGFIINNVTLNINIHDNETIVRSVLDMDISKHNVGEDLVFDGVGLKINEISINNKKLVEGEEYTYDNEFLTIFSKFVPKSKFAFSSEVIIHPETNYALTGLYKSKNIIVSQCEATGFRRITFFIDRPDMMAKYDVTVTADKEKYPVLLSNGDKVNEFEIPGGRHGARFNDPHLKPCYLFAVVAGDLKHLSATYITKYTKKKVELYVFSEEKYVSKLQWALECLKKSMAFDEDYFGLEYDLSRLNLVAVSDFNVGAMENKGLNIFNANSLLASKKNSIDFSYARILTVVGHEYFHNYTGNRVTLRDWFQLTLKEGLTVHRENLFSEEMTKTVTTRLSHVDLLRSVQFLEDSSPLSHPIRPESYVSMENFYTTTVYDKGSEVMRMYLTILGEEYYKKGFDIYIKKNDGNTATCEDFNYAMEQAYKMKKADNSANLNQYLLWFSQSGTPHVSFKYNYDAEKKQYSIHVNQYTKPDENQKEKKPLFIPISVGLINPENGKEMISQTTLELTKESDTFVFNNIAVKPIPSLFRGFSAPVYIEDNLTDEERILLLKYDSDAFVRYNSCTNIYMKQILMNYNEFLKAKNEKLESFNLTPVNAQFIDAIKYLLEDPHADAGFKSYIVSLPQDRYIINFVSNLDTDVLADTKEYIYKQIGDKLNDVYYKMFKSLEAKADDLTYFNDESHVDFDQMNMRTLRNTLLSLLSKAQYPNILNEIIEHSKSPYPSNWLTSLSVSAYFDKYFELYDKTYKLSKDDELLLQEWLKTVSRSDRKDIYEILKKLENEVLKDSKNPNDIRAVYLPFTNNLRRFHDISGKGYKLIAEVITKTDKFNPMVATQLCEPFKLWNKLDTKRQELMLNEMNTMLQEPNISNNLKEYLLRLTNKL
# cells [12] = type: functional, cell-based
# cells [13] = type: functional, cell-based; remark: listed apart in the source
# [14] = target: T3, RNA-binding protein pos-1 (Caenorhabditis elegans, UniProt G5EF15); assay: disruptors of C. elegans POS-1 RNA interaction – biochemical, fluorescence polarization, dose response (AID 1964);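 also: purified POS-1 fused to maltose binding protein made in E. coli; potency of compounds blocking POS-1 binding to fluorescent RNA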
# T3 sequence (G5EF15 whole entry): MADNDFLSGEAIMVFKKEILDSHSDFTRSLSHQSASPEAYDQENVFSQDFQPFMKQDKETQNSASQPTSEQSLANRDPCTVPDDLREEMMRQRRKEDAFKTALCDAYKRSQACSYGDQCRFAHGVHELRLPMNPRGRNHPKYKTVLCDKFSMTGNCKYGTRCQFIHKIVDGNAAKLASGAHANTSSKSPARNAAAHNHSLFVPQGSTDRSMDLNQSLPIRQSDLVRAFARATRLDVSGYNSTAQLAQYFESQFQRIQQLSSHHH
# [15] = target: T4, Zinc finger protein mex-5 (Caenorhabditis elegans, UniProt Q9XUB2); assay: potency of MEX-5 RNA-binding blockers – biochemical, C. elegans, fluorescence polarization, dose response (AID 1960)
# T4 sequence (Q9XUB2 whole entry): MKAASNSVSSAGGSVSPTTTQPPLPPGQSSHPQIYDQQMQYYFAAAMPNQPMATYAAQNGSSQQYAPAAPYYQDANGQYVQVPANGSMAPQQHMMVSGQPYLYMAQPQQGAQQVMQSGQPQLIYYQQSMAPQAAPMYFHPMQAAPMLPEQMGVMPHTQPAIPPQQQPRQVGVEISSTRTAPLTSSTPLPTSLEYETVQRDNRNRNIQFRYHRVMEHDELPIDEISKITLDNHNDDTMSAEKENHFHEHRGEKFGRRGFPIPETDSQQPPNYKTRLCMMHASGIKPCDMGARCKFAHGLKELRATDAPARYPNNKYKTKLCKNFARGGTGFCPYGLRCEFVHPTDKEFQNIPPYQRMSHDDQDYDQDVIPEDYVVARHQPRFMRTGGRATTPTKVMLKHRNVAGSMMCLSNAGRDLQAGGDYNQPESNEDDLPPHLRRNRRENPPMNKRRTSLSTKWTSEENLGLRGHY
# Estrogen receptor = target: T5, Estrogen receptor (Homo sapiens, UniProt P03372);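 also: potency for inhibiting coactivator peptide recruitment to the receptor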
# T5 sequence (P03372 whole entry): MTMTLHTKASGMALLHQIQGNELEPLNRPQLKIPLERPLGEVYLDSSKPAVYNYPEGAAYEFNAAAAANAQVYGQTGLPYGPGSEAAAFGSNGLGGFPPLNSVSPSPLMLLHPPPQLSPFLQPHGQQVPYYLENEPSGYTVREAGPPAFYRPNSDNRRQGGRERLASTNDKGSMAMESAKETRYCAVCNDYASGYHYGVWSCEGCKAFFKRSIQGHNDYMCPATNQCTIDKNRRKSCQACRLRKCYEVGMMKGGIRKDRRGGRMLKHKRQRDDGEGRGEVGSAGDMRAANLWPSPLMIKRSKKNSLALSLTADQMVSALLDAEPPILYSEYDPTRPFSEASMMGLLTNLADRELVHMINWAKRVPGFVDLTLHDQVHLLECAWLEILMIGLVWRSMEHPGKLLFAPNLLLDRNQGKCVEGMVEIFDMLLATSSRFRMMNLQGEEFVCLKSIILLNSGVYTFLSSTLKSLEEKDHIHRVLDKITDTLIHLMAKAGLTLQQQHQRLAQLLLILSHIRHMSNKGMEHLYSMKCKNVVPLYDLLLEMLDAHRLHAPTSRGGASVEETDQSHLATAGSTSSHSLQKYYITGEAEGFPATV
# [16] = target: T6, Short transient receptor potential channel 4 (Mus musculus, UniProt Q9QUQ5); assay: calcium entry via TRPC4 opening agents – cell-based, HEK293 TRPC4/mu-opioid, Fluo-4 calcium, dose response (AID 434937); type: functional
# T6 sequence (Q9QUQ5 whole entry): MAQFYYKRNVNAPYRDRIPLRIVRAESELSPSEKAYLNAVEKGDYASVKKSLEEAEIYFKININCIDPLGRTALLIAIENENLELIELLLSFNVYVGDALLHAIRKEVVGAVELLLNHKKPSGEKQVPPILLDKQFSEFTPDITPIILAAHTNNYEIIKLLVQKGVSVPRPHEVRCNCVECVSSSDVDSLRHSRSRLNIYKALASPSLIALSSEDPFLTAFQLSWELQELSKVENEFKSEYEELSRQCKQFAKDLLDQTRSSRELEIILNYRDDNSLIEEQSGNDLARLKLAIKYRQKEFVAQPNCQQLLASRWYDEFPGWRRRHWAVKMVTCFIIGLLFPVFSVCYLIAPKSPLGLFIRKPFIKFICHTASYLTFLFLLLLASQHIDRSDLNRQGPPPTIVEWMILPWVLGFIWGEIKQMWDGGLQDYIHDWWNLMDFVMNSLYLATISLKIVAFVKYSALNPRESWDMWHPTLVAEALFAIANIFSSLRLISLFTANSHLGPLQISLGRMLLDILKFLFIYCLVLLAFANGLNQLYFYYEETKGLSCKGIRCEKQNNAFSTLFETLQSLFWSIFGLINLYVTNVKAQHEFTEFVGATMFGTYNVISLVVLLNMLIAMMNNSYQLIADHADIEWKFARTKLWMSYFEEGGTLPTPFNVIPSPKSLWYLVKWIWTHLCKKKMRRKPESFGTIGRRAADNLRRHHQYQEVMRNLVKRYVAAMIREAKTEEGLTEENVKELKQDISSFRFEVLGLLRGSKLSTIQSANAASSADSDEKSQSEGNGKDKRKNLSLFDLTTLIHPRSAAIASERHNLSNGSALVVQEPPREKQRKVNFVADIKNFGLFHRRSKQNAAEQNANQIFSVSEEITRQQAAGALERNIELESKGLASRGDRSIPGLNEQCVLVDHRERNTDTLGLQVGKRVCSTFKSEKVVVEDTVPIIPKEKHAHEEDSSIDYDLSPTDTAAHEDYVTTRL
compound,measurement,setting,value
Cc1ccc(S(=O)(=O)N(CC(=O)NCCC2=CCCCC2)Cc2ccccc2)cc1,IC50,Coagulation factor XII,> 50 µM (inactive)
same,AC50,[1],10.7 µM (active)
same,AC50,[2],41.1 µM (active)
same,AC50,[3],10.2 µM (active)
same,AC50,[4],5.01 µM (active)
same,AC50,[5],7.25 µM (active)
CN(C)c1ccc(C(=O)NN2C(=O)c3ccccc3C2=O)cc1,IC50,Coagulation factor XII,> 50 µM (inactive)
Cc1cc(-c2ccccc2)cc(-c2ccccc2)[n+]1CCc1ccccc1.[O-][Cl+3]([O-])([O-])[O-],EC50,[6],> 60 µM (not active)
same,EC50,[7],> 160 µM (inactive)
same,EC50,cells [8],0.07 µM (active)
same,EC50,[9],2.98 µM (active)
same,EC50,[10],< 0.1 µM (active)
same,AC50,INS1,< 0.195 µM (active)
CCN(CC)CCCNC(=O)c1c(O)nc2c(c1O)CCCC2,EC50,[11],> 50 µM (active)
CN(C)C=O.Cc1ccc(-c2cc(-c3nnc(S)o3)c3ccccc3n2)cc1,IC50,Aminopeptidase N,35.5 µM (active)
COC(=O)c1sccc1NC(=O)/C=C/c1c(Cl)cccc1Cl,IC50,Coagulation factor XII,> 50 µM (inactive)
Nc1nc2nc(-c3cccs3)cc(C(F)(F)F)n2n1,EC50,cells [12],> 350 µM (not active)
same,IC50,Aminopeptidase N,61.4 µM (active)
same,EC50,cells [13],> 350 µM (not active)
O=C(O)c1cc(-c2ccc(/C=N/Nc3ccc([N+](=O)[O-])cn3)o2)ccc1Cl,EC50,[14],31 µM (active)
same,IC50,Aminopeptidase N,12.7 µM (active)
same,EC50,[15],6.29 µM (active)
CC1CCN(C(=O)COc2ccc(Nc3ccccc3)cc2)CC1,EC50,[11],> 50 µM (active)
COCCOC(=O)c1[nH]c2c(c1C)C(=O)CC(c1ccco1)C2 (stereo not drawn),IC50,Estrogen receptor,19.5 µM (active)
CN(C)C(CNC(=O)c1cccc(S(=O)(=O)N(C)C)c1)c1ccccc1 (stereo not drawn),EC50,[16],0.299 µM (active)
COc1cccc(NC(=O)CN(C)C(C)C(=O)Nc2ccc(S(=O)(=O)N3CCOCC3)cc2)c1 (stereo not drawn),EC50,[11],> 50 µM (active)
CCCNC(=O)C1CCN(c2ccc(S(=O)(=O)N3CCOCC3)cc2Cl)CC1,EC50,[11],> 50 µM (active)
O=[N+]([O-])c1ccc(N2CCNCC2)c2ncccc12,EC50,[16],0.0373 µM (active)

# — ChEMBL document CHEMBL1201862, “PubChem BioAssay data set” (2004)
